Source: ChEMBL document CHEMBL5608184, “Discovery and mechanistic insights into thieno[3,2-d]pyrimidine and heterocyclic fused pyrimidines inhibitors targeting tubulin for cancer therapy” (Eur J Med Chem, 2024)
Active and inactive are the calls of the source. No cut-off for these calls is given here.

Columns and labels:
SK-OV-3 [1] = assay: Induction of apoptosis in human SK-OV-3 cells assessed as viable cells at 1.25 nM incubated for 48 hrs by Annexin V-APC-A/7-AAD-A staining based flow cytometry (reference value: 97.17 %); format: functional; settings: read-out: Activity
SK-OV-3 [2] = assay: Induction of cell cycle arrest at G2/M phase in human SK-OV-3 cells assessed as decrease in Cdc-25c level incubated for 24 hrs by Western blot analysis; format: functional, cell-based; settings: dose 0.625-5 nM
SK-OV-3 [3] = assay: Inhibition of cell migration in human SK-OV-3 cells assessed as relative wound density at 1.25 nM incubated for 24 hrs by wound healing assay (reference value: 74.53 %); format: functional; design: scale not given: the % may be the effect or the level left
SK-OV-3 [4] = assay: Induction of apoptosis in human SK-OV-3 cells assessed as late apoptotic cells at 1.25 nM incubated for 48 hrs by Annexin V-APC-A/7-AAD-A staining based flow cytometry (reference value: 1.22 %); format: functional
SK-OV-3 [5] = assay: Induction of apoptosis in human SK-OV-3 cells assessed as increase in cleaved caspase-3 level incubated for 48 hrs by Western blot analysis; format: functional, cell-based; settings: dose 0.625-5 nM
Tubulin (Homo sapiens) [6] = target: T1, Tubulin (Homo sapiens) (UniProt P68371+Q9H4B7+P0DPH7+P68366+Q13509+Q71U36+P04350+Q3ZCM7+P07437+P68363+Q9BQE3+Q6PEY2+Q13885+Q9BVA1+Q9BUF5); assay: Inhibition of tubulin polymerization in human SK-OV-3 assessed as decrease in cell viability at 2 nM incubated for 24 hrs by immunofluorescence based analysis
SK-OV-3 [7] = assay: Induction of apoptosis in human SK-OV-3 cells assessed as late apoptotic cells at 2.5 nM incubated for 48 hrs by Annexin V-APC-A/7-AAD-A staining based flow cytometry (reference value: 1.22 %); format: functional
SK-OV-3 [8] = assay: Inhibition of cell migration in human SK-OV-3 cells assessed as relative wound density at 2.5 nM incubated for 24 hrs by wound healing assay (reference value: 74.53 %); format: functional; design: scale not given: the % may be the effect or the level left
Sus scrofa = organism: Sus scrofa; assay: Inhibition of porcine brain tubulin polymerization measured for 60 min by fluorescence based assay; settings: dose 10.0 µM
HCC827 = assay: Antiproliferative activity against human HCC827 cells incubated for 48 hrs by CCK8 assay; format: functional, cell-based; settings: HCC827, 48 h
Tubulin (Homo sapiens) [9] = target: T1, Tubulin (Homo sapiens); assay: Inhibition of tubulin polymerization in human SK-OV-3 assessed as disruption of microtubule cytoskeleton at 2 nM incubated for 24 hrs by immunofluorescence based analysis; format: cell-based
Tubulin (Homo sapiens) [10] = target: T1, Tubulin (Homo sapiens); assay: Inhibition of tubulin polymerization in human SK-OV-3 assessed as severe cell contraction at 2 nM incubated for 24 hrs by immunofluorescence based analysis
SK-OV-3 [11] = assay: Inhibition of cell migration in human SK-OV-3 cells assessed as migration rate at 5 nM incubated for 24 hrs by wound healing assay relative to control; format: functional; design: scale not given: the % may be the effect or the level left
A2780 = assay: Antiproliferative activity against human A2780 cells incubated for 48 hrs by CCK8 assay; format: functional, cell-based; settings: A2780, 48 h
SK-OV-3 [12] = assay: Induction of apoptosis in human SK-OV-3 cells assessed as early apoptotic cells at 2.5 nM incubated for 48 hrs by Annexin V-APC-A/7-AAD-A staining based flow cytometry (reference value: 1.12 %); format: functional
SK-OV-3 [13] = assay: Inhibition of cell migration in human SK-OV-3 cells assessed as migration rate at 2.5 nM incubated for 24 hrs by wound healing assay relative to control; format: functional; design: scale not given: the % may be the effect or the level left
SK-OV-3 [14] = assay: Induction of apoptosis in human SK-OV-3 cells assessed as decrease in Bcl-2 level incubated for 48 hrs by Western blot analysis; format: functional, cell-based; settings: dose 0.625-5 nM
SK-OV-3 [15] = assay: Antiproliferative activity against human SK-OV-3 cells incubated for 48 hrs by CCK8 assay; format: functional, cell-based; settings: SK-OV-3, 48 h
SK-OV-3 [16] = assay: Inhibition of colony formation in human SK-OV-3 cells incubated for 3 days by crystal violet staining based analysis; format: functional, cell-based; settings: dose 0.625-5 nM, time 3.0 day
SK-OV-3 [17] = assay: Inhibition of cell migration in human SK-OV-3 cells assessed as migration rate at 0.625 nM incubated for 24 hrs by wound healing assay relative to control; format: functional; design: scale not given: the % may be the effect or the level left
Tubulin (Homo sapiens) [18] = target: T1, Tubulin (Homo sapiens); assay: Inhibition of tubulin polymerization in human SK-OV-3 assessed as condensation of microtubule at cell periphery at 2 nM incubated for 24 hrs by immunofluorescence based analysis
A549 = assay: cells; settings: Homo sapiens, A549, 48 h
Description: Antiproliferative activity against human A549 cells incubated for 48 hrs by CCK8 assay

SK-OV-3 [19] = assay: Induction of apoptosis in human SK-OV-3 cells assessed as increase in cleaved PARP level incubated for 48 hrs by Western blot analysis; format: functional, cell-based; settings: dose 0.625-5 nM
[20] = Antiproliferative activity against Paclitaxel-resistant human A2780 cells incubated for 48 hrs by CCK8 assay; format: functional, cell-based; settings: Paclitaxel-resistant A2780, 48 h
SK-OV-3 [21] = assay: Induction of cell cycle arrest at G2/M phase in human SK-OV-3 cells assessed as increase in Cyclin B level incubated for 24 hrs by Western blot analysis; format: functional, cell-based; settings: dose 0.625-5 nM
SK-OV-3 [22] = assay: Inhibition of cell migration in human SK-OV-3 cells assessed as migration rate at 1.25 nM incubated for 24 hrs by wound healing assay relative to control; format: functional; design: scale not given: the % may be the effect or the level left
SK-OV-3 [23] = assay: Induction of apoptosis in human SK-OV-3 cells assessed as increase in cleaved caspase-9 level incubated for 48 hrs by Western blot analysis; format: functional, cell-based; settings: dose 0.625-5 nM
SK-OV-3 [24] = assay: Induction of apoptosis in human SK-OV-3 cells assessed as necrotic cells at 0.625 nM incubated for 48 hrs by Annexin V-APC-A/7-AAD-A staining based flow cytometry (reference value: 0.21 %); format: functional
SK-OV-3 [25] = assay: Induction of cell cycle arrest at G2/M phase in human SK-OV-3 cells at 1.25 nM incubated for 24 hrs by PI staining based flow cytometry (reference value: 30.13 %); format: functional
SK-OV-3 [26] = assay: Induction of apoptosis in human SK-OV-3 cells assessed as viable cells at 5 nM incubated for 48 hrs by Annexin V-APC-A/7-AAD-A staining based flow cytometry (reference value: 97.50 %); format: functional; settings: read-out: Activity
SK-OV-3 [27] = assay: Inhibition of cell migration in human SK-OV-3 cells assessed as relative wound density at 0.625 nM incubated for 24 hrs by wound healing assay (reference value: 61.61 %); format: functional; design: scale not given: the % may be the effect or the level left
SK-OV-3 [28] = assay: Induction of cell cycle arrest at G2/M phase in human SK-OV-3 cells at 2.5 nM incubated for 24 hrs by PI staining based flow cytometry (reference value: 30.13 %); format: functional
SK-OV-3 [29] = assay: Induction of apoptosis in human SK-OV-3 cells assessed as viable cells at 1.25 nM incubated for 48 hrs by Annexin V-APC-A/7-AAD-A staining based flow cytometry (reference value: 97.50 %); format: functional; settings: read-out: Activity
SK-OV-3 [30] = assay: Induction of apoptosis in human SK-OV-3 cells assessed as necrotic cells at 1.25 nM incubated for 48 hrs by Annexin V-APC-A/7-AAD-A staining based flow cytometry (reference value: 0.21 %); format: functional
SK-OV-3 [31] = assay: Induction of apoptosis in human SK-OV-3 cells assessed as late apoptotic cells at 0.625 nM incubated for 48 hrs by Annexin V-APC-A/7-AAD-A staining based flow cytometry (reference value: 1.20 %); format: functional
SK-OV-3 [32] = assay: Induction of apoptosis in human SK-OV-3 cells assessed as early apoptotic cells at 1.25 nM incubated for 48 hrs by Annexin V-APC-A/7-AAD-A staining based flow cytometry (reference value: 1.10 %); format: functional

IC50 (HCC827)	inhibition (Tubulin (Homo sapiens) [9])	inhibition (Tubulin (Homo sapiens) [10])	IC50 (A2780)	IC50 (SK-OV-3 [15])	inhibition (Tubulin (Homo sapiens) [18])	IC50 (A549)	SMILES	Activity (SK-OV-3 [2])	Activity (SK-OV-3 [5])	inhibition (Tubulin (Homo sapiens) [6])	inhibition (Sus scrofa)	Activity (SK-OV-3 [11])	Activity (SK-OV-3 [13])	Activity (SK-OV-3 [14])	inhibition (SK-OV-3 [16])	Activity (SK-OV-3 [17])	Activity (SK-OV-3 [19])	IC50 [20]	Activity (SK-OV-3 [21])	Activity (SK-OV-3 [22])	further results
0.34 nM	Active	Active	0.38 nM	0.31 nM	Active	0.84 nM	COc1ccc2c(c1)NC(=O)CN2c1nc(Cl)nc2ccsc12	Active	Dose-Dependent Effect	Active	Dose-Dependent Effect	23.64%	50.2%	Dose-Dependent Effect	Dose-Dependent Effect	84.28%	Dose-Dependent Effect	0.75 nM	Active	70.73%	viability at 0.00125 µM (SK-OV-3 [1]): 54.3%; Activity (SK-OV-3 [3]): 33.15%; Activity (SK-OV-3 [4]): 4.64%; Activity (SK-OV-3 [7]): 4.71%; Activity (SK-OV-3 [8]): 9.35%; Activity (SK-OV-3 [12]): 39.07%; Activity (SK-OV-3 [23]): Dose-Dependent Effect
1.74 nM	Active	Active	1.56 nM	1.32 nM	Active	1.76 nM	COc1ccc(N(C)c2nc(Cl)nc3ccn(C)c23)cc1	Active	Dose-Dependent Effect	Active	Dose-Dependent Effect	56.82%	81.73%	Dose-Dependent Effect	Dose-Dependent Effect	102.55%	Dose-Dependent Effect	2.26 nM	Active	94.75%	Activity (SK-OV-3 [24]): 0.33%; Activity (SK-OV-3 [25]): 34.62%; viability at 0.005 µM (SK-OV-3 [26]): 54%; Activity (SK-OV-3 [27]): 58.03%; Activity (SK-OV-3 [28]): 52.19%; viability at 0.00125 µM (SK-OV-3 [29]): 94.1%; Activity (SK-OV-3 [30]): 0.56%; Activity (SK-OV-3 [31]): 1.93%; Activity (SK-OV-3 [32]): 2.83%; Activity (SK-OV-3 [23]): Dose-Dependent Effect
